# Measurements reported in ChEMBL document CHEMBL1681655, “Identification of a new series of non-peptidic NK3 receptor antagonists” (Bioorg Med Chem Lett, 2011).
# Target: T1, Neuromedin-K receptor (Homo sapiens, UniProt P29371)
# T1 sequence (P29371 whole entry): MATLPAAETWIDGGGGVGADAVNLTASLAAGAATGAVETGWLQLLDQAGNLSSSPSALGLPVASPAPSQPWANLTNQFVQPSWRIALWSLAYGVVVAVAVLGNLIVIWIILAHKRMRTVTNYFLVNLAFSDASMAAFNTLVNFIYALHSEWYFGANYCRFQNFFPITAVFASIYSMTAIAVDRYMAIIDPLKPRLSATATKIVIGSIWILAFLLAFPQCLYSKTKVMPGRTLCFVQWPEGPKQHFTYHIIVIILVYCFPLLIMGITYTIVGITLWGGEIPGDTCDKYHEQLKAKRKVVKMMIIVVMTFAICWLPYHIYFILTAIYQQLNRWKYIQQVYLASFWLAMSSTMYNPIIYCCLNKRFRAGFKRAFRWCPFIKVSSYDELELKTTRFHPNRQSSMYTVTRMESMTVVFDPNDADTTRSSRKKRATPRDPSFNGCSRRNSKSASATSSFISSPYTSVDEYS
# Experiment: Displacement of [3H]Lu AE93103 from human NK3 receptor expressed in BHK cells
# Type: cell-based
row,Ki,SMILES
1,83 nM,CC(=O)NC1(c2ccccc2)CCN(C[C@H]2C[C@]2(C(=O)N(C)Cc2ccccc2)c2ccc(Cl)c(Cl)c2)CC1
2,5.8 nM,CC(=O)NC1(c2ccccc2)CCN(C[C@@H]2C[C@@]2(C(=O)N(C)Cc2ccc(F)cc2)c2ccc(Cl)c(Cl)c2)CC1
3,32 nM,CC(=O)NC1(c2ccccc2)CCN(C[C@@H]2C[C@@]2(C(=O)N(C)Cc2ccc(F)cc2)c2cccc(Cl)c2)CC1
4,90 nM,CC(=O)NC1(c2ccccc2)CCN(C[C@@H]2C[C@@]2(C(=O)N(C)Cc2ccc(F)cc2)c2cc(Cl)cc(Cl)c2)CC1
5,20 nM,CC(=O)NC1(c2ccccc2)CCN(CC2CC2(C(=O)N(C)Cc2ccccc2Cl)c2ccc(Cl)c(Cl)c2)CC1 (racemic)
6,18 nM,CC(=O)NC1(c2ccccc2)CCN(CC2CC2(C(=O)N(C)Cc2ccccc2F)c2ccc(Cl)c(Cl)c2)CC1 (racemic)
7,5.3 nM,CC(=O)NC1(c2ccccc2)CCN(CC2CC2(C(=O)N(C)Cc2ccccc2C)c2ccc(Cl)c(Cl)c2)CC1 (racemic)
8,14 nM,COc1ccccc1CN(C)C(=O)C1(c2ccc(Cl)c(Cl)c2)CC1CN1CCC(NC(C)=O)(c2ccccc2)CC1 (racemic)
9,12 nM,CC(=O)NC1(c2ccccc2)CCN(CC2CC2(C(=O)N(C)Cc2cccc(F)c2)c2ccc(Cl)c(Cl)c2)CC1 (racemic)
10,24 nM,CC(=O)NC1(c2ccccc2)CCN(CC2CC2(C(=O)N(C)Cc2cccc(Cl)c2)c2ccc(Cl)c(Cl)c2)CC1 (racemic)
11,33 nM,COc1cccc(CN(C)C(=O)C2(c3ccc(Cl)c(Cl)c3)CC2CN2CCC(NC(C)=O)(c3ccccc3)CC2)c1 (racemic)
12,50 nM,CC(=O)NC1(c2ccccc2)CCN(CC2CC2(C(=O)N(C)Cc2cccc(C(F)(F)F)c2)c2ccc(Cl)c(Cl)c2)CC1 (racemic)

# Further lines, the compound ahead of its results:
row,SMILES,Ki
1,CC(=O)NC1(c2ccccc2)CCN(C[C@@H]2C[C@@]2(C(=O)N(C)Cc2ccc(F)cc2)c2ccc(F)cc2)CC1,67 nM
2,CC(=O)NC1(c2ccccc2)CCN(C[C@@H]2C[C@@]2(C(=O)N(C)Cc2ccc(F)cc2)c2ccc(Cl)cc2)CC1,36 nM
3,CC(=O)NC1(c2ccccc2)CCN(C[C@@H]2C[C@@]2(C(=O)N(C)Cc2ccc(F)cc2)c2ccc(C)cc2)CC1,37 nM
4,COc1ccc([C@]2(C(=O)N(C)Cc3ccc(F)cc3)C[C@H]2CN2CCC(NC(C)=O)(c3ccccc3)CC2)cc1,350 nM
5,CC(=O)NC1(c2ccccc2)CCN(C[C@@H]2C[C@@]2(C(=O)N(C)Cc2ccc(F)cc2)c2ccc(C(F)(F)F)cc2)CC1,1000 nM
6,CC(=O)NC1(c2ccccc2)CCN(C[C@@H]2C[C@@]2(C(=O)N(C)Cc2ccc(F)cc2)c2ccc(C#N)cc2)CC1,270 nM
7,CC(=O)NC1(c2ccccc2)CCN(C[C@@H]2C[C@@]2(C(=O)N(C)Cc2ccc(F)cc2)c2cccc(F)c2)CC1,140 nM
8,CC(=O)NC1(c2ccccc2)CCN(C[C@@H]2C[C@@]2(C(=O)N(C)Cc2ccc(F)cc2)c2cccc(C)c2)CC1,40 nM
9,COc1cccc([C@]2(C(=O)N(C)Cc3ccc(F)cc3)C[C@H]2CN2CCC(NC(C)=O)(c3ccccc3)CC2)c1,56 nM
10,CC(=O)NC1(c2ccccc2)CCN(C[C@@H]2C[C@@]2(C(=O)N(C)Cc2ccc(F)cc2)c2cccc(C(F)(F)F)c2)CC1,210 nM
11,CC(=O)NC1(c2ccccc2)CCN(C[C@@H]2C[C@@]2(C(=O)N(C)Cc2ccc(F)cc2)c2cccc(C#N)c2)CC1,1900 nM
12,CC(=O)NC1(c2ccccc2)CCN(C[C@@H]2C[C@@]2(C(=O)N(C)Cc2ccc(F)cc2)c2ccc(F)c(F)c2)CC1,47 nM
13,CC(=O)NC1(c2ccccc2)CCN(C[C@@H]2C[C@@]2(C(=O)N(C)Cc2ccc(F)cc2)c2ccc(C)c(C)c2)CC1,7.3 nM
14,CC(=O)NC1(c2ccccc2)CCN(C[C@@H]2C[C@@]2(C(=O)N(C)Cc2ccc(F)cc2)c2ccc3c(c2)OCO3)CC1,140 nM
15,CC(=O)NC1(c2ccccc2)CCN(C[C@@H]2C[C@]2(C(=O)N(C)Cc2ccc(F)cc2)c2cccs2)CC1,93 nM
16,CC(=O)NC1(c2ccccc2)CCN(C[C@@H]2C[C@@]2(C(=O)N(C)Cc2ccc(F)cc2)c2ccsc2)CC1,110 nM
